Reference: ChEMBL document CHEMBL1138161, “Structure-activity relationships of alpha-amino acid ligands for the alpha2delta subunit of voltage-gated calcium channels” (Bioorg Med Chem Lett, 2006)

Legend:
[1] = test system: Rattus norvegicus; test: Potency against persistent inflammatory pain in orally dosed rat CFA model; format: functional; settings: po
[2] = Concentration in rat brain after 0.75 h at 100 umol/kg, po; format: ADME, organism-based; settings: read-out: Drug uptake
[3] = test system: Rattus norvegicus; test: Maximum efficacy in rat CFA model at 300 umol/kg; format: functional

NC(CCSCc1ccc(Br)cc1)C(=O)O (stereo not given)
ED50 [1]: > 300 µmol/kg

NC(C(=O)O)c1cccc(Cl)c1 (stereo not given)
concentration at 0.75 h [2]: 1760 ng/g
Efficacy [3]: 64%

N[C@H](C(=O)O)c1ccccc1
concentration at 0.75 h [2]: 6300 ng/g
ED50 [1]: 100 µmol/kg

N[C@@H](CCSCc1ccccc1)C(=O)O
concentration at 0.75 h [2]: 430 ng/g
ED50 [1]: 120 µmol/kg

N[C@@H](CC1CCCCC1)C(=O)O
ED50 [1]: 200 µmol/kg

NCC1(CC(=O)O)CCCCC1 [GABAPENTIN]
concentration at 0.75 h [2]: 3410 ng/g
ED50 [1]: 125 µmol/kg
